# Assays:
# [1] = tested on: HBV; experiment: 4-week treatment course in HBV chronically infected patients: HBV replication markers (pgRNA, HBcrAg, HBsAg); assay type: in vivo, human
# [2] = tested on: FXR; experiment: FXR engagement markers (C4, FGF19) in HBV chronically infected patients; assay type: in vivo, human; details: all EYP001 doses; data not shown
# [3] = Pruritus under EYP001 once a day versus twice a day in combined treatment with IFN-α; assay type: in vivo, human; details: EYP001 once a day rather than twice a day
# Description: Therefore, in a particular aspect, the FXR agonist is administered once a day.
# [4] = tested on: HBV; details: chronic hepatitis B patients; cited from earlier work
# [5] = tested on: HBV infected primary human hepatocytes (PHH); experiment: HBV replication in infected primary human hepatocytes (PHH), FXR agonist +/- IFN-alpha; assay type: cell-based; details: treated day 4 to 10 post-infection, harvested day 10, GW4064 1 or 10 uM, IFN-alpha 100 IU/mL
# Description: FIG. 3. […] Freshly prepared and seeded PHH were infected with HBV at a multiplicity of infection of 250 GE/cell. From day 4 to 10 post-infection, cells were treated with […], +/−IFN-alpha at 100 IU/mL, or vehicle (NT), or IFN-alpha at 100 IU/mL alone. Cells and supernatants were harvested at day 10 for intracellular HBV RNA, viremia, and secreted antigens (HBsAg and HBeAg) quantification. Results are the mean+/−SD of one experiment performed with three biological replicates.
# FIG. 4. […] Freshly prepared and seeded PHH were infected with HBV at a multiplicity of infection of 250 GE/cell. From day 4 to 10 post-infection, cells were treated with Vonafexor at 10 uM, or Nidufexor at 10 uM, or Tropifexor at 1 uM, or OCA at 10 uM, or GW4064 at 10 uM, +/−IFN-alpha (IFN) at 100 IU/mL, or vehicle, or IFN-alpha at 100 IU/mL alone. Supernatants were harvested at day 10 for secreted HBs antigen (HBsAg) quantification. Results are the mean+/−SEM of five experiments performed with three replicates.
# Supernatants containing HBV particles were clarified (0.45 μm filter) and concentrated with 8% PEG 8000 (Sigma-Aldrich).
# HBV DNA was quantified using the AmpliPrep/COBAS® TaqMan® HBV Test (Roche).
# HBs and HBe antigens secreted in cells supernatant were quantified, after required dilutions, with Autobio kits (AutoBio, China) according to manufacturer's protocol.
# Total RNA was prepared using NucleoSpin RNA Plus (Macherey-Nagel). After DNA digestion with TURBO DNase (Ambion), maximum 1000 ng RNA were reverse-transcribed using High-Capacity RNA-to-cDNA kit (Thermo Fisher Scientific). […] All assays were performed in triplicate.
# HBs antigen secreted in cells supernatant were quantified, after required dilutions, with Autobio kits (AutoBio, China) according to manufacturer's protocol.
# PHH are naturally susceptible to infection with HBV virions produced in vitro, leading to very high levels of replication of the virus.
# [6] = change from baseline at end of 4-week treatment (day 29), ETV open-label 0.5 mg/day
# [7] = change from baseline at day 29, EYP001a 1 × 100 mg/day oral monotherapy
# [8] = change from baseline at day 29, EYP001a 1 × 200 mg/day oral monotherapy
# [9] = change from baseline at day 29, EYP001a 1 × 400 mg/day oral monotherapy
# [10] = change from baseline at day 29, EYP001a 2 × 200 mg/day oral monotherapy
structure (smiles),measurement,setting,value
"C=C1[C@H](CO)[C@@H](O)C[C@@H]1n1cnc2c(=O)[nH]c(N)nc21 [ETV, entecavir, reference compound]",HBVpgRNA Mean,[1]; [6],−0.3 Log10 Copies mL
same,HBcrAg Mean,[1]; [6],0.03 Log10 IU mL
O=C(O)c1cc2c(Cl)c(N3CCN(S(=O)(=O)c4c(Cl)cccc4Cl)CC3)ccc2o1 [EYP001a],C4,[2],decreases
same,FGF19,[2],increases
same,pruritus,[3],fewer pruritus
same,HBVpgRNA Mean,[1]; [7],0.5 Log10 Copies mL
same,HBcrAg Mean,[1]; [7],−0.3 Log10 IU mL
same,HBVpgRNA Mean,[1]; [8],0.4 Log10 Copies mL
same,HBcrAg Mean,[1]; [8],0.2 Log10 IU mL
same,HBVpgRNA Mean,[1]; [9],0.2 Log10 Copies mL
same,HBcrAg Mean,[1]; [9],0.02 Log10 IU mL
same,HBVpgRNA Mean,[1]; [10],−0.1 Log10 Copies mL
same,HBcrAg Mean,[1]; [10],1.2 Log10 IU mL
same,mean HBsAg decrease,"[1]; end of treatment on day 29, 400 mg QD EYP001, p<0.05",−0.1 log 10 IU/mL
same,HBV viral load,[4],reduces HBV viral load
"CC(C)c1onc(-c2c(Cl)cccc2Cl)c1COc1ccc(/C=C/c2cccc(C(=O)O)c2)c(Cl)c1 [GW4064, 3-[2-[2-Chloro-4-[[3-(2,6-dichlorophenyl)-5-(1-methylethyl)-4-isoxazolyl]methoxy]phenyl]ethenyl]benzoic acid]",HBeAg secretion,[5],reduce in a dose response manner
same,HBsAg secretion,[5],unable to significantly impact
same,intracellular HBV RNA level,[5],reduce in a dose response manner
same,viremia,[5],unable to significantly impact

# Reference: US20240100125A1 (ENYO PHARMA, priority 2021, published 2024)
